Measured values published in article PMC8447932 (Chemical Science, 2021).

System: spontaneously hypertensive (SHR) male rats
Experiment: Blood pressure in SHR rats after single PO administration
Assay type: in vivo, rat
Conditions: 3 mg kg−1 per os once

Q: What does the source list for `COc1cc2nc(N3CCN(C(=O)C4CCCO4)CC3)nc(N)c2cc1OC` (centres unmarked) [compound 74, terazosin]?
A: systolic BP lowering effect in comparison with the vehicle at 120 min (120 min time point): no statistically significant activity; systolic BP decrease in comparison with corresponding vehicle groups (after 15 min and 60 min of treatment): significant systolic BP decrease
